# Experimental data reported in PubChem BioAssay (NCI).
#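 In this assay, cells in 96-well plates receive the compound at five concentrations for 48 hours. Endpoints are linearly interpolated between the surrounding concentrations. GI50: concentration for 50% inhibition of growth. TGI is the concentration that stops growth completely.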
# What was measured:
# Assay in all cases: growth of human tumour cells (NCI), 48 h
# 786-0 renal = test system: 786-0 renal
# OVCAR-8 ovarian = test system: OVCAR-8 ovarian
# M14 melanoma = test system: M14 melanoma
# SNB-75 CNS = test system: SNB-75 CNS
# A498 renal = test system: A498 renal
# NCI-H460 lung = test system: NCI-H460 lung
# UO-31 renal = test system: UO-31 renal
# MDA-MB-435 = test system: MDA-MB-435
# SF-268 CNS = test system: SF-268 CNS
# SF-295 CNS = test system: SF-295 CNS
Structure (SMILES),GI50 (786-0 renal),TGI (786-0 renal),GI50 (OVCAR-8 ovarian),TGI (OVCAR-8 ovarian),GI50 (M14 melanoma),TGI (M14 melanoma),GI50 (SNB-75 CNS),TGI (SNB-75 CNS),GI50 (A498 renal),TGI (A498 renal),GI50 (NCI-H460 lung),TGI (NCI-H460 lung),GI50 (UO-31 renal),TGI (UO-31 renal),GI50 (MDA-MB-435),TGI (MDA-MB-435),GI50 (SF-268 CNS),TGI (SF-268 CNS),GI50 (SF-295 CNS),TGI (SF-295 CNS)
Cc1cn2c(/C=C3\C(=O)Nc4ccc(O)cc43)c(-c3ccc(Cl)cc3)nc2s1,16.6 µM,32.7 µM,18.4 µM,> 100 µM,17 µM,> 100 µM,6.27 µM,23.7 µM,16.8 µM,38.8 µM,15.5 µM,45.3 µM,5.37 µM,59.9 µM,17.6 µM,88.8 µM,15.2 µM,54.5 µM,15.2 µM,41.4 µM
CCN1CCN=c2c3cc(OC)ccc3n3cnc4ccc1c2c43,–,0.394 µM,–,1.4 µM,–,1.04 µM,–,1.4 µM,–,0.735 µM,–,0.308 µM,–,0.385 µM,–,1.31 µM,–,4.69 µM,–,1.29 µM
C1CSCCSCCS1,–,> 100 µM,–,> 100 µM,–,> 100 µM,–,> 100 µM,–,–,–,> 100 µM,–,> 100 µM,–,> 100 µM,–,> 100 µM,–,> 100 µM
C=CC(=O)N1CCC(C2CCNc3c(C(N)=O)c(-c4ccc(Oc5ccccc5)cc4)nn32)CC1 (stereo not drawn),12.2 µM,> 100 µM,16.9 µM,59.2 µM,15.4 µM,33.1 µM,8.31 µM,38.6 µM,2.33 µM,7.19 µM,31.4 µM,> 100 µM,1.94 µM,24.3 µM,13.4 µM,38 µM,6.98 µM,45 µM,17.9 µM,70 µM
Oc1cc(O)c2c(c1)OC(c1ccc(O)c(O)c1)C(OC1(c3cc(O)c(O)c(O)c3)Oc3cc(O)cc(O)c3C(O)C1O)C2 (stereo not drawn),–,67.8 µM,–,> 67.7 µM,–,> 65.6 µM,–,60.8 µM,–,> 49.9 µM,–,36.8 µM,–,50.2 µM,–,37.6 µM,–,66.2 µM,–,> 100 µM
N#Cc1c(-c2ccc(F)cc2)c(-c2ccc(F)cc2)nn(CCO)c1=O,–,> 100 µM,–,–,–,> 100 µM,–,16.9 µM,–,> 54.2 µM,–,> 25.1 µM,–,> 100 µM,–,0.608 µM,–,> 100 µM,–,37.2 µM
O=c1c2ccccc2sc2cccc(NCCCN3CCN(CCCNc4cccc5sc6ccccc6c(=O)c45)CC3)c12,–,> 100 µM,–,–,–,> 100 µM,–,> 100 µM,–,> 100 µM,–,> 100 µM,–,> 100 µM,–,> 100 µM,–,> 100 µM,–,> 100 µM
O=C(CC(O)(C(F)(F)F)C(F)(F)F)c1cc(CC(=O)C(O)(C(F)(F)F)C(F)(F)F)cc(CC(=O)C(O)(C(F)(F)F)C(F)(F)F)c1,–,4.53 µM,–,6.91 µM,–,> 9.09 µM,–,6.73 µM,–,5.43 µM,–,2.25 µM,–,3.84 µM,–,> 4.25 µM,–,> 10 µM,–,4.47 µM
COc1cccc2c1C(=O)c1c(O)c3c(c(O)c1C2=O)CC(O)(/C(C)=N/NC(=O)CCC(=O)N/N=C(\C)C1(O)Cc2c(O)c4c(c(O)c2C(OC2CC(N)C(O)C(C)O2)C1)C(=O)c1c(OC)cccc1C4=O)CC3OC1CC(N)C(O)C(C)O1 (stereo not drawn),0.182 µM,1.06 µM,0.306 µM,> 50 µM,0.292 µM,2.12 µM,0.222 µM,2.01 µM,0.161 µM,0.939 µM,0.0981 µM,0.947 µM,0.158 µM,1.09 µM,0.552 µM,3.29 µM,0.259 µM,8.11 µM,0.42 µM,6.51 µM
Cc1nc2ccccc2nc1-c1ccc(N=[N+]([O-])c2ccc(-c3nc4ccccc4nc3C)cc2)cc1,–,> 100 µM,–,> 100 µM,–,> 100 µM,–,46 µM,–,> 89 µM,–,> 100 µM,–,> 100 µM,–,> 100 µM,–,> 100 µM,–,> 100 µM
Nc1nccc2c1ccn2-c1ccc(NC(=O)c2ccc(N3CCOCC3)c(C(F)(F)F)c2)cc1,0.207 µM,0.529 µM,3.47 µM,19.6 µM,0.622 µM,2.54 µM,0.246 µM,1.38 µM,0.402 µM,2.94 µM,0.352 µM,1.65 µM,0.573 µM,4.15 µM,0.69 µM,2.99 µM,0.879 µM,15.1 µM,0.204 µM,0.515 µM
Cn1cnc([N+](=O)[O-])c1S(=O)(=O)Oc1ccccc1,25.1 µM,55.6 µM,22.6 µM,> 92.7 µM,11.1 µM,27.3 µM,14.9 µM,34.9 µM,16.8 µM,38.1 µM,23.9 µM,> 72.8 µM,1.68 µM,3.47 µM,9.84 µM,31.9 µM,16.5 µM,48.2 µM,29.9 µM,> 73 µM
O=c1cc2oc3cc(O)c(O)cc3c(-c3ccccc3O)c-2cc1O,6.32 µM,37.2 µM,16 µM,> 100 µM,6.66 µM,32.1 µM,3.81 µM,> 100 µM,1.44 µM,8.36 µM,21.5 µM,82.6 µM,3.3 µM,> 100 µM,4.57 µM,> 100 µM,5.53 µM,> 100 µM,19.6 µM,61.3 µM
NS(=O)(=O)c1ccc(N(/C=C/C(=O)C(F)(F)F)CC(=O)c2ccc(Cl)cc2)cc1,45.2 µM,> 100 µM,43.4 µM,> 100 µM,–,–,–,–,> 100 µM,> 100 µM,31.8 µM,89 µM,45.3 µM,> 100 µM,> 100 µM,> 100 µM,34.5 µM,> 100 µM,26.2 µM,74.4 µM
C[C@H]1Oc2cc(cnc2N)-c2c(nn(C)c2C#N)CN(C)C(=O)c2ccc(F)cc21,36.2 µM,> 100 µM,98 µM,> 100 µM,48.9 µM,> 100 µM,21.7 µM,> 100 µM,0.452 µM,> 30.6 µM,28.2 µM,> 100 µM,13.9 µM,60.2 µM,48.6 µM,> 100 µM,27.1 µM,> 100 µM,47.9 µM,> 100 µM
CCOc1ccc2nc(S/C(=C/C=C(C#N)C#N)c3ccc(C)cc3)sc2c1,21.9 µM,46.8 µM,32.8 µM,> 100 µM,35.8 µM,> 100 µM,–,–,42.3 µM,> 100 µM,22.7 µM,57.9 µM,36.2 µM,> 100 µM,20.7 µM,59.4 µM,30 µM,> 100 µM,22.8 µM,60.8 µM
CCCCCCNC(=O)c1nc(-c2ccccc2)oc1Cc1ccc(OP(=O)(O)O)cc1,17.9 µM,35.4 µM,20.2 µM,45.6 µM,18 µM,35.5 µM,13.1 µM,29.2 µM,12.5 µM,25.1 µM,20.2 µM,43 µM,12.6 µM,26.8 µM,16.4 µM,30.5 µM,17.3 µM,35.4 µM,–,–
Cc1ccc(-c2nc3ccc([N+](=O)[O-])cc3[nH]2)cc1,–,> 100 µM,–,> 100 µM,–,> 100 µM,–,> 100 µM,–,–,–,> 100 µM,–,> 100 µM,–,> 100 µM,–,> 100 µM,–,> 100 µM
Cc1ccc(/C=C/c2c(C(=O)/C=C/c3ccc(C(F)(F)F)cc3)c(C)nc3ccccc23)cc1,1.7 µM,3.18 µM,1.88 µM,6.43 µM,–,–,1.23 µM,2.48 µM,1.77 µM,3.24 µM,1.53 µM,3.22 µM,1.01 µM,2.17 µM,1.49 µM,2.89 µM,1.57 µM,3.09 µM,1.74 µM,3.14 µM
COC1C(O)=C2C(=O)O/C(C)=C/C=C/C=C/C=C\CC(c3ccccc3)NC(=O)\C=C/C=C\C=C\C=C\[C@@]2(C)[C@@H]1O (stereo partly drawn),–,0.148 µM,–,0.243 µM,–,0.35 µM,–,0.0503 µM,–,0.318 µM,–,–,–,0.0607 µM,–,0.044 µM,–,0.318 µM,–,0.0238 µM
CC(C)=CCc1cc(O)cc2c1OC(C=C(C)C)C1=C2C(=O)C2=C(NCCS2(=O)=O)C1=O (stereo not drawn),2.93 µM,7.11 µM,3.24 µM,8.71 µM,0.646 µM,2.69 µM,2.53 µM,4.86 µM,2.94 µM,5.47 µM,1.2 µM,4.28 µM,2.03 µM,6.05 µM,0.315 µM,0.634 µM,2.34 µM,8.2 µM,–,–
